Positions of bridges follow the written chain, without caps; N, C: chain ends. Residues, ends and D or L forms follow the SMILES beside them.
What was measured:
S. aureus 29213 [1] = experiment: MIC in the presence of physiological salts; format: cell-based, Staphylococcus aureus; details: three independent repeats, unit not given in Table 4
Protocol: (§1) The experiment was repeated at least three times independently.
The MIC of peptides was determined in the presence of salts at physiological concentrations (150 mM NaCl, 4.5 mM KCl, 6 μM NH4Cl, 8 μM ZnCl2, 1 mM MgCl2, 2 mM CaCl2, and 4 μM FeCl3) as described previously ([Dong et al., 2014]). All experiments were performed three times independently.

S. aureus 29213 [2] = experiment: Histology (HE) of infected skin tissue; format: in vivo, ICR mice; details: 24 h after injection of S. aureus
Protocol: To assess the antimicrobial activity of the peptide in vivo, a mouse model of subcutaneous infection was used ([Huang et al., 2011a]; [Omolo et al., 2017]). Female Institute for Cancer Research (ICR) mice (SPF, 20–25 g) were purchased from WeiTonglihua Co., Ltd. (Beijing, China), with eight animals per group. The mice were shaved on their backs and disinfected. S. aureus 29213 (100 μL) at a concentration of 1 × 10^8 CFU/mL was injected into the superficial skin of the mice. The mice were divided into four groups (n = 4), as follows: S. aureus + saline, S. aureus + S2 (80× MIC, 100 μL), S. aureus + vancomycin (Van) (80× MIC, 100 μL), and saline. S2, vancomycin, and saline were injected at the same site 1 h after infection. The mice were monitored over 24 h in an environmentally controlled room at 25 ± 1°C and 55 ± 5% relative humidity with a 12 h light/dark cycle.
To image the infected skin tissues, the mice were euthanized 24 h after the injection of S. aureus. Samples were fixed in 4% buffered paraformaldehyde and subjected to hematoxylin/eosin (HE) staining. The antimicrobial activity in vivo was determined by colony counting of infected skin samples. Skin homogenates were serially diluted in saline and incubated at 37°C for 24 h.

S. aureus 29213 [3] = experiment: Cytoplasmic membrane depolarization, diSC3-5; format: cell-based, Staphylococcus aureus; details: 0.4 μM diSC3-5, 100 mM KCl, ex 622 nm, em 670 nm
Protocol: The dye diSC3-5 was employed to assay cytoplasmic membrane depolarization activities ([Shao et al., 2018]). S. aureus 29213 was diluted to an OD600 = 0.05 after washing three times with buffer (5 mM HEPES, 5 mM glucose, pH 7.4) when the bacteria grew to mid-log phase. Then, diSC3-5 at a final concentration of 0.4 μM was added into the medium and incubated for 1–1.5 h. The final concentration of 100 mM KCl was then added to the solution for 15 min. The peptides were added to 12-well plates, which were filled with 2 mL of cell suspension. An F-4500 fluorescence spectrophotometer (Hitachi, Japan) was employed to measure the fluorescence value at an excitation wavelength of 622 nm and an emission wavelength of 670 nm. Maximal augmentation was monitored, and the fluorescence of the mixture of bacteria and dye served as the blank control.

S. aureus ATCC 29213 = experiment: SEM and TEM characterization of membrane damage; format: cell-based, Staphylococcus aureus
Protocol: Bacterial membrane damage induced by the peptide was visualized using scanning electron microscopy (SEM). S. aureus ATCC 29213 was washed three times using PBS after growing to the mid-log phase and diluted to an OD600 = 0.2. The bacteria were incubated for 30 min with peptide, and the bacterial growth in PBS was used as the control. The cells were washed twice with PBS and fixed with 2.5% (w/v) glutaraldehyde at 4°C overnight. The bacterial cells were dehydrated with a graded series of ethanol (50, 70, 90, and 100%) for 10 min at each step. The samples were transferred to a mixture (v: v = 1:1) of alcohol and tert-butanol for 30 min and tert-butanol alone for 1 h. The dried bacterial specimens, which were obtained using a critical point dryer, were coated and visualized under a field emission scanning electron microscope (Hitachi S-4800, Japan).
The processing method of the samples for transmission electron microscopy (TEM) was the same as the treatment for SEM. The samples were then prefixed with 2.5% glutaraldehyde at 4°C overnight, post-fixed with osmium tetroxide for 70 min, and washed twice with PBS (pH 7.2). Subsequently, the samples were dehydrated in different concentrations of ethanol (50, 70, and 90%) for 8 min in series and 10 min in 100% ethanol twice and then transferred to a mixture (v:v = 1:1) of 100% ethanol and acetone for 10 min. […]

S. pullorum 7913 = experiment: MIC, modified microtiter dilution; format: cell-based, Salmonella pullorum; details: MHB, 2–7 × 10^5 CFU/ml, 37°C, 24 h, no turbidity, at least three independent repeats
Text: as §1

## CC(C)C[C@H](NC(=O)[C@H](CC(C)C)NC(=O)[C@H](Cc1c[nH]c2ccccc12)NC(=O)[C@H](Cc1c[nH]c2ccccc12)NC(=O)[C@H](Cc1c[nH]c2ccccc12)NC(=O)[C@H](CCCNC(=N)N)NC(=O)[C@@H]1CSSC[C@H](N)C(=O)N[C@@H](C)C(=O)N[C@@H](CO)C(=O)N[C@@H](Cc2ccc(O)cc2)C(=O)N[C@@H](Cc2ccccc2)C(=O)N1)C(N)=O [Peptide S2] (H-CASYFCRWWWLL-NH2; disulfide 1-6; N-terminus assumed)
S. aureus 29213 [1]; 4 μM FeCl3
  MIC against S. aureus 29213, FeCl3: 16 µM
S. aureus 29213 [1]; 6 μM NH4Cl
  MIC against S. aureus 29213, NH4Cl: 8 µM
S. aureus 29213 [1]; 8 μM ZnCl2
  MIC against S. aureus 29213, ZnCl2: 4 µM
S. aureus 29213 [1]; 1 mM MgCl2
  MIC against S. aureus 29213, MgCl2: 8 µM
S. aureus 29213 [1]; 2 mM CaCl2
  MIC against S. aureus 29213, CaCl2: 16 µM
S. aureus 29213 [1]; 4.5 mM KCl
  MIC against S. aureus 29213, KCl: 8 µM
S. aureus 29213 [1]; 150 mM NaCl
  MIC against S. aureus 29213, NaCl: 8 µM
S. aureus 29213 [2]
  histomorphological changes of skin tissue (HE): good recovery
S. aureus 29213 [3]
  cytoplasmic membrane depolarization (diSC3-5 fluorescence): rapid fluorescence intensity increase
S. aureus ATCC 29213; at its MIC for 30 min
  morphology and membrane integrity by SEM: wrinkles, disrupted membrane integrity, and leakage of cell contents
S. aureus ATCC 29213; treatment for 30 min
  morphology and internal structure by TEM: the membrane of S. aureus was damaged, and a substantial outflow of cytoplasm was observed
S. pullorum 7913
  MIC S. pullorum 7913: >64 µM
